Data on 10 compounds can be found in article PMC9927415, “Tyrosine Kinase Inhibitors Display Potent Activity against Cryptosporidium parvum” (Microbiology Spectrum, 2022).

As usually defined, the inhibition is how much of the control response was suppressed.

Common to all, as to test: KINOMEscan competitive binding, whole panel
Experiment [1] addresses T1, panel of 203 kinases (Homo sapiens, UniProt Q9Y2H1).
T1 construct: purchased DiscoverX (KINOMEscan)
The conditions noted are these: 10 µM, n=1; kinase NDR2; read-out: Percent inhibition NDR2. A digest of the protocol:
(§1)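 First, kinases were produced as T7 bacteriophage fusion proteins. Then compounds were added to compete them off probe ligands immobilized on a solid support at the ATP site. Finally, bound kinase was measured and converted to percentage inhibition.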

The target in experiment [2] is T2, panel of 203 kinases (Homo sapiens, UniProt O14976).
T2 construct: purchased DiscoverX (KINOMEscan)
T2 sequence (O14976 1-1311): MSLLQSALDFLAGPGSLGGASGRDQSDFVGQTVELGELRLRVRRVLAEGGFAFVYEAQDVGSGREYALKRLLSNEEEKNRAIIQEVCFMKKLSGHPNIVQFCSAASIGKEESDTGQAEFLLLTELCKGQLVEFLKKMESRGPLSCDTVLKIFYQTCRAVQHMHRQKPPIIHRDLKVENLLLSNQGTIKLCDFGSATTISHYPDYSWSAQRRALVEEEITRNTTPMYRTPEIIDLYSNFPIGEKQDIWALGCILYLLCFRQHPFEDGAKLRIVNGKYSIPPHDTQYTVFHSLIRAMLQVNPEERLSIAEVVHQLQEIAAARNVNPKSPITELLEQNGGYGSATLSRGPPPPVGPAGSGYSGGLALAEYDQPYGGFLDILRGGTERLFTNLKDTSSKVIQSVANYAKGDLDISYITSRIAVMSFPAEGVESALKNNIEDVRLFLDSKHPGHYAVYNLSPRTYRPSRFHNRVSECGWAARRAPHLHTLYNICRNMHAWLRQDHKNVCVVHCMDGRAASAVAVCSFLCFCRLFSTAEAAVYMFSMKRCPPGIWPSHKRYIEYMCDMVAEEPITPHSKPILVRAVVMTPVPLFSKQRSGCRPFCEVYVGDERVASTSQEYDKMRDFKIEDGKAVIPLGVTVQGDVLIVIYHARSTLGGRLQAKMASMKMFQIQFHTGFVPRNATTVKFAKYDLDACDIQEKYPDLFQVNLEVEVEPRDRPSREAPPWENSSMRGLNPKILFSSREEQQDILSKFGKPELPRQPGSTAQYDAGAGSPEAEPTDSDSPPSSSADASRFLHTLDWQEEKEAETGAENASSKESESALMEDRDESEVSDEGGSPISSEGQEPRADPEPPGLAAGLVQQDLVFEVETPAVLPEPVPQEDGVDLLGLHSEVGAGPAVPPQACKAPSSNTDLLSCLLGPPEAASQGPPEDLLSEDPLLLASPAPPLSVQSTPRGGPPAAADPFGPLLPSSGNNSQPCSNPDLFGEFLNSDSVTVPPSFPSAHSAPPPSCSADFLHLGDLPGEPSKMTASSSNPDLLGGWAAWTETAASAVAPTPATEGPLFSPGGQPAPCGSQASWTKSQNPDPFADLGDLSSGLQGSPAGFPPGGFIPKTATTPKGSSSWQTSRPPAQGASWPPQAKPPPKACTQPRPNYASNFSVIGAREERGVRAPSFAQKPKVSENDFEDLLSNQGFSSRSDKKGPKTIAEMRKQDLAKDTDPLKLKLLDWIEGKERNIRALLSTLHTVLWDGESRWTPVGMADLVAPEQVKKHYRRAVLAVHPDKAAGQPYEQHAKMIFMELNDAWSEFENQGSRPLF
The conditions noted are these: 10 µM, n=1; kinase GAK; read-out: Percent inhibition GAK. In a few lines: as §1

For experiment [3], the target named is T3, panel of 203 kinases (Homo sapiens, UniProt Q13555).
T3 construct: purchased DiscoverX (KINOMEscan)
Particulars: 10 µM, n=1; kinase CAMK2G; read-out: Percent inhibition CAMK2G. A digest of the protocol: as §1

The target of experiment [4] is T4, panel of 203 kinases (Homo sapiens, UniProt P15056).
T4 construct: purchased DiscoverX (KINOMEscan)
The conditions noted are these: 10 µM, n=1; kinase BRAF; read-out: Percent inhibition BRAF. In a few lines:
as §1

Experiment [5] concerns the target T5, panel of 203 kinases (Homo sapiens, UniProt Q9HBH9).
T5 construct: purchased DiscoverX (KINOMEscan)
Particulars: 10 µM, n=1; kinase MKNK2; read-out: Percent inhibition MKNK2. A digest of the protocol:
as §1

Experiment [6] deals with T6, panel of 203 kinases (Homo sapiens, UniProt Q96L34).
T6 construct: purchased DiscoverX (KINOMEscan)
T6 sequence (Q96L34 1-752): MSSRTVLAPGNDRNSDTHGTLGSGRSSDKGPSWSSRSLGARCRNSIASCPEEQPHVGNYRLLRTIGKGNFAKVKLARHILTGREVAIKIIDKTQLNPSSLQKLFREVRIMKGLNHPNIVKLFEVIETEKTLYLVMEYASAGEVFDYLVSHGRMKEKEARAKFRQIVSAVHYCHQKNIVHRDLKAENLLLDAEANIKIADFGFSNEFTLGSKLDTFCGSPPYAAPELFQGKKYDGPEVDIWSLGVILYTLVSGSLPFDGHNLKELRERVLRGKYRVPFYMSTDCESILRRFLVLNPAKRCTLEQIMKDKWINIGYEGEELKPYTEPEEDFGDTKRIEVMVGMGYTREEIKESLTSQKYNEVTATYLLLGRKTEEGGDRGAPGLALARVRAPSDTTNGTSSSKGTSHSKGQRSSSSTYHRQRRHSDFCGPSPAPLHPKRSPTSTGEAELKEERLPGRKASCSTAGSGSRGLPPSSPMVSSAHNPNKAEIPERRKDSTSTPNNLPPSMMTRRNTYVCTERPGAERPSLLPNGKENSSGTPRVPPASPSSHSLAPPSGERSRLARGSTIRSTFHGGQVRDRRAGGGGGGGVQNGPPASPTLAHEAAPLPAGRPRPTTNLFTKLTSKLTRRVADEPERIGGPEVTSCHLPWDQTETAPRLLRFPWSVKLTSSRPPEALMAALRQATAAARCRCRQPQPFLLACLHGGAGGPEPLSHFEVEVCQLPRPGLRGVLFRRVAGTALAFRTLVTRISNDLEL
Particulars: 10 µM, n=1; kinase MARK4; read-out: Percent inhibition MARK4. In a few lines:
as §1

Experiment [7] deals with T7, panel of 203 kinases (Homo sapiens, UniProt Q14012).
T7 construct: purchased DiscoverX (KINOMEscan)
The conditions noted are these: 10 µM, n=1; kinase CAMK1; read-out: Percent inhibition CAMK1. In a few lines: as §1

The target in experiment [8] is T8, panel of 203 kinases (Homo sapiens, UniProt Q13554).
T8 construct: purchased DiscoverX (KINOMEscan)
The conditions noted are these: 10 µM, n=1; kinase CAMK2B; read-out: Percent inhibition CAMK2B. A digest of the protocol: as §1

The target of experiment [9] is T9, panel of 203 kinases (Homo sapiens, UniProt Q8TDX7).
T9 construct: purchased DiscoverX (KINOMEscan)
Particulars: 10 µM, n=1; kinase NEK7; read-out: Percent inhibition NEK7. A digest of the protocol:
as §1

For experiment [10], the target named is T10, panel of 203 kinases (Homo sapiens, UniProt Q9UM73).
T10 construct: purchased DiscoverX (KINOMEscan)
The conditions noted are these: 10 µM, n=1; kinase ALK; read-out: Percent inhibition ALK. A digest of the protocol:
as §1

T10 sequence (Q9UM73 19-1620): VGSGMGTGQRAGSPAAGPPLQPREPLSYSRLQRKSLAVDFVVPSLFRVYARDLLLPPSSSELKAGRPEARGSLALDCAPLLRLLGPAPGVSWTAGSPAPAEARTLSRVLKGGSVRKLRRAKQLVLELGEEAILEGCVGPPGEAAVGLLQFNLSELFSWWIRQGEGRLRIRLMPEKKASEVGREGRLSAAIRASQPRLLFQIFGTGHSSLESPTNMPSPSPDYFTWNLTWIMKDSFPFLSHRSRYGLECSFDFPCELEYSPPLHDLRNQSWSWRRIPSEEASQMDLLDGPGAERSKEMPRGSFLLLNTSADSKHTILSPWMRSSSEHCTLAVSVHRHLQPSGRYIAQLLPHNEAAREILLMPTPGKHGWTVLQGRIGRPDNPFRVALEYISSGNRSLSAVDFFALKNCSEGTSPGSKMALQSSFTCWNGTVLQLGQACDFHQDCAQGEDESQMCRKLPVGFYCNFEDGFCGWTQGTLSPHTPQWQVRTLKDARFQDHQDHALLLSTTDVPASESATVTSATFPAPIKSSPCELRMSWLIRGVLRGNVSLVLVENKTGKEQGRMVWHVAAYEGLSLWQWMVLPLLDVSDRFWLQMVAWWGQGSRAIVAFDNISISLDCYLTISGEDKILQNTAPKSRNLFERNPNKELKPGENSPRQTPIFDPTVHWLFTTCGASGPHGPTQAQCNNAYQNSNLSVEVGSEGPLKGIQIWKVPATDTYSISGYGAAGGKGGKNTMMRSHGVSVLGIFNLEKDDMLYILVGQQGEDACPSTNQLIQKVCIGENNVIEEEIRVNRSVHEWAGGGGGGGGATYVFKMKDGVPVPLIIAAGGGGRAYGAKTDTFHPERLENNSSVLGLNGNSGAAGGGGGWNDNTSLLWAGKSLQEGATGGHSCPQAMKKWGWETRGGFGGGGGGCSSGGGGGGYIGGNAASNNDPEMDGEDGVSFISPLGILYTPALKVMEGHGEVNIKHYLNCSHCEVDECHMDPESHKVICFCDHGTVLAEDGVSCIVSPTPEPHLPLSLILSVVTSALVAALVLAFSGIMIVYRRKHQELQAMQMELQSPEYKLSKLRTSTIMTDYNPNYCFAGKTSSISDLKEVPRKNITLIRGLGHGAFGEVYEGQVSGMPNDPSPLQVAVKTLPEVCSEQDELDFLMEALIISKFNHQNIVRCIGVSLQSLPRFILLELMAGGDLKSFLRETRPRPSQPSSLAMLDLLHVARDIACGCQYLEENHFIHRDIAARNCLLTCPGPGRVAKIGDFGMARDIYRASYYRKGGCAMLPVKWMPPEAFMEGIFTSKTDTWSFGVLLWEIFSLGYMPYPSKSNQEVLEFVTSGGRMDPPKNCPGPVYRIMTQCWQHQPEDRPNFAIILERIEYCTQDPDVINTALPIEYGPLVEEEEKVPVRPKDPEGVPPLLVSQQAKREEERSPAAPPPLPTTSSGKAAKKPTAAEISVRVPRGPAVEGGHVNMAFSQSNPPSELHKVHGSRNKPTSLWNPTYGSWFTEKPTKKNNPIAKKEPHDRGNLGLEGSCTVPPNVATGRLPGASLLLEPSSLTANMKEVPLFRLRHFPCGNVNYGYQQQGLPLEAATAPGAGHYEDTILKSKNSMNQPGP
T9 sequence (Q8TDX7 whole entry): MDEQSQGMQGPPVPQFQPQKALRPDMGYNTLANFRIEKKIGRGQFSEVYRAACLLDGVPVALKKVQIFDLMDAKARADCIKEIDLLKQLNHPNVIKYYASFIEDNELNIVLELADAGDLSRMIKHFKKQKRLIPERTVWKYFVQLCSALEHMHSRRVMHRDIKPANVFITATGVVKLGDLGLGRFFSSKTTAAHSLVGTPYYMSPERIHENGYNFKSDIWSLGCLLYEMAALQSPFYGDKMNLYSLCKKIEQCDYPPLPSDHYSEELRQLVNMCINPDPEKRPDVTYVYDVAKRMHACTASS
T5 sequence (Q9HBH9 whole entry): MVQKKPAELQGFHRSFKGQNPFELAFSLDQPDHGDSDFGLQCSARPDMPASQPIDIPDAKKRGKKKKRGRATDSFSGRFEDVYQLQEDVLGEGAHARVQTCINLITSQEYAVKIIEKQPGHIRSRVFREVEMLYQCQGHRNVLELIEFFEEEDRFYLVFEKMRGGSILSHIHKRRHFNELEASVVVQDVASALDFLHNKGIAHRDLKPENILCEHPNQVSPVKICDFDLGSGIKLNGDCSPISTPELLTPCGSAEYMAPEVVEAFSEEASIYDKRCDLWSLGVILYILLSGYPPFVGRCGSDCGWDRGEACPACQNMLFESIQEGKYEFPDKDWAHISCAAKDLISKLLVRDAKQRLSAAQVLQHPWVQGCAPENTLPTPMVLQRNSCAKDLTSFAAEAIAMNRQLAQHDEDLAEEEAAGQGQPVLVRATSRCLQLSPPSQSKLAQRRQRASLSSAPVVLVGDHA
T1 sequence (Q9Y2H1 whole entry): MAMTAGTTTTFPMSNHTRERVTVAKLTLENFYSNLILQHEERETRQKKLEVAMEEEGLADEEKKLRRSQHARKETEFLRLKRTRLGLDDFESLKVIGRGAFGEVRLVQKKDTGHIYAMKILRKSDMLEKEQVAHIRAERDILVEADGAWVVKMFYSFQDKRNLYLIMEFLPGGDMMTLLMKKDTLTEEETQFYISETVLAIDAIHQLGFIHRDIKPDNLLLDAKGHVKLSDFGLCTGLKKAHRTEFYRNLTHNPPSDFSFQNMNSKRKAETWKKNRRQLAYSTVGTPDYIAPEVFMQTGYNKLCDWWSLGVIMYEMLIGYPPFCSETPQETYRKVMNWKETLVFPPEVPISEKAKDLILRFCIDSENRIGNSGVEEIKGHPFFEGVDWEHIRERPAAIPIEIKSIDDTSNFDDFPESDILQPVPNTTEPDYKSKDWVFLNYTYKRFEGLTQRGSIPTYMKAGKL
T4 sequence (P15056 whole entry): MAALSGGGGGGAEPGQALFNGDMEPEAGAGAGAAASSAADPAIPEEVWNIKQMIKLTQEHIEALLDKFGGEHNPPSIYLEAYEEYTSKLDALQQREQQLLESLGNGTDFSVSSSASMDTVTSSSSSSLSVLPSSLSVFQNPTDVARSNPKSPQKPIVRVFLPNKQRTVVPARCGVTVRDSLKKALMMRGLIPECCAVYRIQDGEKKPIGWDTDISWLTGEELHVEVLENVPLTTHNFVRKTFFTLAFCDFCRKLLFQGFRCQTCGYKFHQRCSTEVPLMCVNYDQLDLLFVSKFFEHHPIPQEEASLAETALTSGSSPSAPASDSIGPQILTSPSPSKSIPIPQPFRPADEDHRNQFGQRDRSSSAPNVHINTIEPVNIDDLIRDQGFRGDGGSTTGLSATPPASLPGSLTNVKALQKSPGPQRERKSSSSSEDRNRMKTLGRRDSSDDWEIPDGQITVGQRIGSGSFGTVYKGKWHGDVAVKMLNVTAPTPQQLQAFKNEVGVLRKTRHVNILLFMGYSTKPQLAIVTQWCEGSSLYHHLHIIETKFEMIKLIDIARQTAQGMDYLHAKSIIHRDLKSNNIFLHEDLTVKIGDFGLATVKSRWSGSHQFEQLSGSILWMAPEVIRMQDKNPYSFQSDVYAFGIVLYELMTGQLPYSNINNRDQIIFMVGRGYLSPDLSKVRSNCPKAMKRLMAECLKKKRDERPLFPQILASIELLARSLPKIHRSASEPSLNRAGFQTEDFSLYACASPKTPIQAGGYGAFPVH
T7 sequence (Q14012 whole entry): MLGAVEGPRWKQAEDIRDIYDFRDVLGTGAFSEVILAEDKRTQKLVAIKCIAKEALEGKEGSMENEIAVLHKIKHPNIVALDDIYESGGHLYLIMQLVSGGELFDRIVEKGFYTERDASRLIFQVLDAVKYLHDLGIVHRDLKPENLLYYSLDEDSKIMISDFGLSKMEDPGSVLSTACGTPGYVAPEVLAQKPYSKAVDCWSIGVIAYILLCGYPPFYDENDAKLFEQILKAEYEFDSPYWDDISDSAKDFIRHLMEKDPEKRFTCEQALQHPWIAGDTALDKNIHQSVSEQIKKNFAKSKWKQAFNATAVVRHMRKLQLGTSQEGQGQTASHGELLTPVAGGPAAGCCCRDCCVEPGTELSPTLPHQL
T8 sequence (Q13554 whole entry): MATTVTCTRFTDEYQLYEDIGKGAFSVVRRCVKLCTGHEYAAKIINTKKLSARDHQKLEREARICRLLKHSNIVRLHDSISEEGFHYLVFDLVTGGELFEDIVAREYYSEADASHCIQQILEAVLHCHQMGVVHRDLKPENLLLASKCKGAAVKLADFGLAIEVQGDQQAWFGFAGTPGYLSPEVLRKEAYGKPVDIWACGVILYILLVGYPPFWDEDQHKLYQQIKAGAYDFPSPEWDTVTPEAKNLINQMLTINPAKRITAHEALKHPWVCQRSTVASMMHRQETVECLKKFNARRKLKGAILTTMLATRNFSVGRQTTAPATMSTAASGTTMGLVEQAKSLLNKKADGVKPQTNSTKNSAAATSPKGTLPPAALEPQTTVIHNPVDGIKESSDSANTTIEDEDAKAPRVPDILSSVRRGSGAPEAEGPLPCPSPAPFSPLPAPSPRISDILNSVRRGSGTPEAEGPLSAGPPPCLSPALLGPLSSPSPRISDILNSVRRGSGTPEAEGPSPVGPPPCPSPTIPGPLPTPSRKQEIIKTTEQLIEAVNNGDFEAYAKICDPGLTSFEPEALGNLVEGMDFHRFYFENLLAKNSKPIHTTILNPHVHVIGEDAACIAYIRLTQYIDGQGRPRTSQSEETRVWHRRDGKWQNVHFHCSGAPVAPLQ

On to `CN1CCN(c2ccc(Nc3nccc(-c4cnn5ncccc45)n3)cc2C#N)CC1` [Compound 1], for which the inhibition at 10 µM at panel of 203 kinases [1] is 0%; on panel of 203 kinases [2] it was 97.9%; on panel of 203 kinases [3], 97.7%; on panel of 203 kinases [4], 0%; at panel of 203 kinases [5] it was 97%; at panel of 203 kinases [6], 0%. The inhibition at 10 µM on panel of 203 kinases [7] came to 92.3%; on panel of 203 kinases [8] it was 96.5%; at panel of 203 kinases [9], 100%; on panel of 203 kinases [10] it was 99.1%.

`COc1ccc(Nc2nccc(-c3cnn4ncccc34)n2)cc1` [Compound 2]: the inhibition at 10 µM was found to be 91.7% on panel of 203 kinases [1]; 99.9% at panel of 203 kinases [2]; 75.2% at panel of 203 kinases [3]; 99.6% at panel of 203 kinases [4]; 99.4% on panel of 203 kinases [5]; 67.8% at panel of 203 kinases [6]. The inhibition at 10 µM at panel of 203 kinases [7] worked out at 0%; on panel of 203 kinases [8], 73.9%; at panel of 203 kinases [9], 100%; on panel of 203 kinases [10], 94.8%.

`Cc1ccc(O)cc1Nc1ccnc(Nc2cccc(C(N)=O)c2)n1` [Compound 3]: the inhibition at 10 µM is 0% on panel of 203 kinases [1]; 99.8% on panel of 203 kinases [2]; 0% on panel of 203 kinases [3]; 0% at panel of 203 kinases [4]; 83.9% at panel of 203 kinases [5]; 0% at panel of 203 kinases [6]. The inhibition at 10 µM on panel of 203 kinases [7], on panel of 203 kinases [8], at panel of 203 kinases [9] and on panel of 203 kinases [10] was 0% throughout.

Turning to `Cc1ccc(O)cc1N(C)c1ccnc(Nc2cccc(S(N)(=O)=O)c2)n1` [Compound 4], the inhibition at 10 µM was 69.4% at panel of 203 kinases [1]; 99.6% at panel of 203 kinases [2]; 0% at panel of 203 kinases [3]; 0% at panel of 203 kinases [4]; 99.3% at panel of 203 kinases [5]; 0% at panel of 203 kinases [6]. In addition, the inhibition at 10 µM at panel of 203 kinases [7], on panel of 203 kinases [8], on panel of 203 kinases [9] and on panel of 203 kinases [10] was 0% each time.

On to `Fc1cccc(COc2ccc(Nc3ncnc4c3CN(CCN3CCOCC3)CC4)cc2Cl)c1` [Compound 6], for which the inhibition at 10 µM at panel of 203 kinases [1], at panel of 203 kinases [2], at panel of 203 kinases [3], at panel of 203 kinases [4], at panel of 203 kinases [5] and on panel of 203 kinases [6] was 0% in each case. For the same compound, the inhibition at 10 µM on panel of 203 kinases [7], on panel of 203 kinases [8], at panel of 203 kinases [9] and on panel of 203 kinases [10] was 0% in each case.

In the case of `COc1cc(Nc2nccc(-c3sc(N)nc3-c3cccc(NC(=O)c4c(F)cccc4F)c3)n2)cc(OC)c1OC` [Compound 7], the inhibition at 10 µM on panel of 203 kinases [1] amounted to 100%; on panel of 203 kinases [2], 100%; on panel of 203 kinases [3], 0%; on panel of 203 kinases [4] it was 100%; on panel of 203 kinases [5] it was 100%; at panel of 203 kinases [6], 0%. The inhibition at 10 µM on panel of 203 kinases [7] turned out to be 91.5%; on panel of 203 kinases [8], 0%; at panel of 203 kinases [9], 91.3%; at panel of 203 kinases [10], 0%.

With `C[C@@H](Oc1cc(-c2cnc3ccccn23)sc1C(N)=O)c1ccccc1Cl` [Compound 8], the inhibition at 10 µM was found to be 0% at panel of 203 kinases [1]; 97.2% at panel of 203 kinases [2]; 0% on panel of 203 kinases [3]; 0% on panel of 203 kinases [4]; 0% on panel of 203 kinases [5]; 0% at panel of 203 kinases [6]. In addition, the inhibition at 10 µM at panel of 203 kinases [7], on panel of 203 kinases [8], on panel of 203 kinases [9] and on panel of 203 kinases [10] was 0% in each case.

In the case of `c1ccc(COc2cccc(-c3ccnc4[nH]ccc34)c2)cc1` [Compound 9], the inhibition at 10 µM on panel of 203 kinases [1], on panel of 203 kinases [2], at panel of 203 kinases [3], at panel of 203 kinases [4], at panel of 203 kinases [5] and on panel of 203 kinases [6] was 0% each time. Also, the inhibition at 10 µM at panel of 203 kinases [7], on panel of 203 kinases [8], on panel of 203 kinases [9] and at panel of 203 kinases [10] was 0% in each case.

Take `Clc1ccc(Nc2ncc(-c3ccccc3)s2)cc1` [Compound 10]: the inhibition at 10 µM at panel of 203 kinases [1] is 0%; at panel of 203 kinases [2], 0%; on panel of 203 kinases [3], 0%; at panel of 203 kinases [4], 0%; on panel of 203 kinases [5] it was 65.7%; on panel of 203 kinases [6], 0%. Further, the inhibition at 10 µM at panel of 203 kinases [7], at panel of 203 kinases [8], at panel of 203 kinases [9] and on panel of 203 kinases [10] was 0% in each case.

For `Nc1ncc2c(-c3ccncc3)c[nH]c2n1` [Compound 11], the inhibition at 10 µM at panel of 203 kinases [1] was 0%; at panel of 203 kinases [2], 97.2%; on panel of 203 kinases [3], 0%; on panel of 203 kinases [4], 0%; at panel of 203 kinases [5], 97.3%; at panel of 203 kinases [6], 93.8%. Moreover, the inhibition at 10 µM at panel of 203 kinases [7] is 0%; at panel of 203 kinases [8] it was 85.7%; at panel of 203 kinases [9], 0%; on panel of 203 kinases [10], 0%.
